# ChEMBL document CHEMBL5247595, “Synthesis, antitumor, and apoptosis-inducing activities of novel 5-arylidenethiazolidine-2,4-dione derivatives: Histone deacetylases inhibitory activity and molecular docking study” (Eur J Med Chem, 2022)
# Columns and labels:
# Histone deacetylase 1 = Histone deacetylase 1 (Homo sapiens, UniProt Q13547); assay: Inhibition of HDAC1 (unknown origin) by ELISA assay
# Histone deacetylase 8 = biological target: T1, Histone deacetylase 8 (Homo sapiens, UniProt Q9BY41); assay: Inhibition of HDAC8 (unknown origin) by ELISA assay
# T1 sequence (Q9BY41 whole entry): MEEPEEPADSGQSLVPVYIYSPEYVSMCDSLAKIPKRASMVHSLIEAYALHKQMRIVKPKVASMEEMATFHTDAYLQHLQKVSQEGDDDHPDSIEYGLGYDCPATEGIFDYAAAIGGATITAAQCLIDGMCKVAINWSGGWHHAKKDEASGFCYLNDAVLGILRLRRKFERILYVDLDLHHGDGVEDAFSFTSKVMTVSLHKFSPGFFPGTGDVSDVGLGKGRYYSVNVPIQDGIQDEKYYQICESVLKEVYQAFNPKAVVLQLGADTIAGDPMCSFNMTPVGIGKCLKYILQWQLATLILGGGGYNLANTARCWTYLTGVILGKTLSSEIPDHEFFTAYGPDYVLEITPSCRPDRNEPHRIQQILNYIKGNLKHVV
# HeLa = assay: cells; format: functional, cell-based; settings: Homo sapiens, 48 h
# Description: Cytotoxicity against human HeLa cells assessed as inhibition of cell growth measured after 48 hrs by MTT assay
# in vitro = settings: human, WI-38 cells
# Description: Cytotoxicity against human WI-38 cells assessed as inhibition of cell growth measured after 48 hrs by MTT assay
# HCT-116 = assay: cells; format: functional, cell-based; settings: Homo sapiens, HCT-116, 48 h
# Description: Cytotoxicity against human HCT-116 cells assessed as inhibition of cell growth measured after 48 hrs by MTT assay
# [1] = biological target: T2, Protein deacetylase HDAC6 (Homo sapiens, UniProt Q9UBN7); assay: Inhibition of HDAC6 (unknown origin) by ELISA assay
# T2 sequence (Q9UBN7 whole entry): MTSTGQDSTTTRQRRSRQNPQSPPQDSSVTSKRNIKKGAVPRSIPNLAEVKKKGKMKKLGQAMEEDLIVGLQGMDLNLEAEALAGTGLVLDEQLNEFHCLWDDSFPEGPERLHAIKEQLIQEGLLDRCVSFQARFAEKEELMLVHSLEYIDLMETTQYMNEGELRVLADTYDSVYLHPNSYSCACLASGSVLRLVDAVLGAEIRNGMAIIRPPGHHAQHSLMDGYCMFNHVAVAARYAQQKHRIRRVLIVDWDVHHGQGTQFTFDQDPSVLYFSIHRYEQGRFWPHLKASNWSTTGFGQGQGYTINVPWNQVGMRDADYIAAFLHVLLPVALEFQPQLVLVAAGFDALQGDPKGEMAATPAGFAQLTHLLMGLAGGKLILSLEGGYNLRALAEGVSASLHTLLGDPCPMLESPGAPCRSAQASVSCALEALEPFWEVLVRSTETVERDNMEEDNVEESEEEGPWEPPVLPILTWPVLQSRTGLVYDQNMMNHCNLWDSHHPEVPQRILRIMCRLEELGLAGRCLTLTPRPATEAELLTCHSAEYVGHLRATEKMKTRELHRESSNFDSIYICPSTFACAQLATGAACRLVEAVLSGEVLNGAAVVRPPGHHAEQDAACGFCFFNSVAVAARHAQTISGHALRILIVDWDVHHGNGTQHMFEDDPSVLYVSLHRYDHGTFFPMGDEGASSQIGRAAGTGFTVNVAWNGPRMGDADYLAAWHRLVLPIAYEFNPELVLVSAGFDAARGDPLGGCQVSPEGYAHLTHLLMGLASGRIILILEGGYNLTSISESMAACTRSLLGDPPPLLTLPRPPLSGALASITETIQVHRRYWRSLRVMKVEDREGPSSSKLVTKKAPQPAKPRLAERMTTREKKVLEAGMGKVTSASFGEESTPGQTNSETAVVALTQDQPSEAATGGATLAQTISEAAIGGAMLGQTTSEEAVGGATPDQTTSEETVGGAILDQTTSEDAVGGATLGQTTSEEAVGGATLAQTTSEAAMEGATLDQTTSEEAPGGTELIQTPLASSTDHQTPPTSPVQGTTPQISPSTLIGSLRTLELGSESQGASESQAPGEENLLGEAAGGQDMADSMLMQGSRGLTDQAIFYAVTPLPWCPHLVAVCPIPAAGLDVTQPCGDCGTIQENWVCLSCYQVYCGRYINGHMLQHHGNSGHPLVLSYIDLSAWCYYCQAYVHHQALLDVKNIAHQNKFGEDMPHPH
# Histone deacetylase 2 = Histone deacetylase 2 (Homo sapiens, UniProt Q92769); assay: Inhibition of HDAC2 (unknown origin) by ELISA assay
# Histone deacetylase 2, sequence (Q92769 whole entry): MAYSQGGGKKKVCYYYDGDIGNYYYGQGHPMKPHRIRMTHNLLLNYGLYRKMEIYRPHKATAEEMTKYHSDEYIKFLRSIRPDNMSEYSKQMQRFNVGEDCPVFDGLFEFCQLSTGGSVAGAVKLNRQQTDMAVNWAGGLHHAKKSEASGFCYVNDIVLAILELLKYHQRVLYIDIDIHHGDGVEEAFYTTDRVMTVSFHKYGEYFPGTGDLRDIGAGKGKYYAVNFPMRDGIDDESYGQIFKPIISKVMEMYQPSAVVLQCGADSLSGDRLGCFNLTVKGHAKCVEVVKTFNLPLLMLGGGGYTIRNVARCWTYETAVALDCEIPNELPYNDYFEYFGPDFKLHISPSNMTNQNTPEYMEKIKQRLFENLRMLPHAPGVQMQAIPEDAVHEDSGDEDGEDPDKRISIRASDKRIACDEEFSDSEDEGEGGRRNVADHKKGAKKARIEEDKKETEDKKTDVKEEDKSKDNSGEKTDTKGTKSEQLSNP
# MCF7 = assay: cells; format: functional, cell-based; settings: Homo sapiens, MCF7, 48 h
# Description: Cytotoxicity against human MCF7 cells assessed as inhibition of cell growth measured after 48 hrs by MTT assay
# HepG2 = assay: cells; format: functional, cell-based; settings: Homo sapiens, HepG2, 48 h
# Description: Cytotoxicity against human HepG2 cells assessed as inhibition of cell growth measured after 48 hrs by MTT assay
# PC-3 = assay: Cytotoxicity against human PC-3 cells assessed as inhibition of cell growth measured after 48 hrs by MTT assay; format: functional, cell-based; settings: PC-3, 48 h
# Histone deacetylase 1, sequence (Q13547 whole entry): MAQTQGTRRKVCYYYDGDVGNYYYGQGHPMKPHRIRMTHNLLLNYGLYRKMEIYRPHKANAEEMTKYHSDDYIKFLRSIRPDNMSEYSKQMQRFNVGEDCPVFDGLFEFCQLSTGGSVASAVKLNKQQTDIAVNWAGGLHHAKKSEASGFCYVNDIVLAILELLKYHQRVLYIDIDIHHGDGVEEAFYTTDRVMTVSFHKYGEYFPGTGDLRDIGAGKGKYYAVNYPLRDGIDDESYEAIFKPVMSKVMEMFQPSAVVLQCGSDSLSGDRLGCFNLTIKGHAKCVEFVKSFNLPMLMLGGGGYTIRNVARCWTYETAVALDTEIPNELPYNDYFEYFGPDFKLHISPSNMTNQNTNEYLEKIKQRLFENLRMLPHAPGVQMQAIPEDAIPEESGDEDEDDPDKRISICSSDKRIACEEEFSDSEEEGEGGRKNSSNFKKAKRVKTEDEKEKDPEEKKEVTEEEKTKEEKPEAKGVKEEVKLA
SMILES,IC50 (Histone deacetylase 1) [µM],IC50 (Histone deacetylase 8) [µM],IC50 (HeLa) [µM],IC50 at 48 h (in vitro) [µM],IC50 (HCT-116) [µM],IC50 [1] [µM],IC50 (Histone deacetylase 2) [µM],IC50 (MCF7) [µM],IC50 (HepG2) [µM],IC50 (PC-3) [µM]
COc1cc(/C=C2\SC(=O)N(CCNC(=O)Nc3c(C)n(C)n(-c4ccccc4)c3=O)C2=O)cc(OC)c1OC,0.349,0.344,15.8,51.5,12.5,0.475,1.74,7.58,10.8,35.4
Cc1ccc(/C=C2\SC(=O)N(CC(=O)Nc3c(C)n(C)n(-c4ccccc4)c3=O)C2=O)cc1,,,53.1,83.7,47.6,,,65.5,57.6,45.3
Cc1c(NC(=O)NCCN2C(=O)S/C(=C\c3ccc([N+](=O)[O-])cc3)C2=O)c(=O)n(-c2ccccc2)n1C,0.16,0.245,37.7,76.4,44.8,0.144,0.526,18.6,14,69.3
Cc1c(NC(=O)CN2C(=O)S/C(=C\c3ccc(Cl)cc3)C2=O)c(=O)n(-c2ccccc2)n1C,,,19.9,54.4,23,,,42.6,31.9,28.9
Cc1c(NC(=O)CN2C(=O)S/C(=C\c3ccc(Br)cc3)C2=O)c(=O)n(-c2ccccc2)n1C,0.458,1.09,9.41,66.7,7.84,1.63,3.85,24.1,19.2,17.1
O=C(CCCCCCC(=O)Nc1ccccc1)NO [VORINOSTAT],,,,,,,,,,3.6
